Here are results for one compound from ChEMBL document CHEMBL5223170, “Potent and Selective Biaryl Amide Inhibitors of Hematopoietic Progenitor Kinase 1 (HPK1)” (ACS Med Chem Lett, 2023).

By CLint scaled is commonly meant a measure of how fast metabolising enzymes remove a compound, apart from limits set by blood flow. A higher CLint scaled goes with faster metabolism. As a reminder, the solubility is how much of the substance goes into solution per volume. A low value points to a poorly soluble substance.

Structures are written as SMILES. ≈ marks a conversion by molar mass, not a printed value.

Data set [1] is described as follows: in vitro. The note with it: human, liver microsomes. (In general: Microsomes from liver hold many membrane-bound enzymes, among them those of drug oxidation.)
Data set [2] is described as follows: physchem. The note with it: SGF buffer.

With `COc1cccc(F)c1-c1nccc(C(=O)Nc2cc(F)c3c(cnn3C)c2N2C[C@@H](N)C[C@H]2CO)n1`, the CLint scaled at 0.5 h in data set [1] is above 18.3 mL/min/kg. In data set [2], this compound had a solubility of 350 µg/mL (≈ 687 µM).
